Experimental findings from patent US10259810B2, “N-sulfonylated pyrazolo[3,4-b]pyridin-6-carboxamides and method of use” (AbbVie S.à.r.l., priority 2015, dated 2019) are described below.

For assay [1], the target named is T1, ΔF508-CFTR (Homo sapiens, UniProt P13569, DEL508-508).
T1 construct: host or cells: CFBE41o-, doxycycline-inducible
Nature of the assay: CFTR cell surface levels using HRP-tagged ΔF508-CFTR expressing CFBE cells, in the presence of a co-corrector. It is filed as cell-based. The method in brief: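 Chemiluminescent read-out of surface HRP (15 min, dark) after PBS washes. Activity is normalized as 100×(sample−DMSO)/(3 μM co-corrector alone−DMSO).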

Assay [2] addresses T1, ΔF508-CFTR. Nature of the assay: CFTR cell surface levels using HRP-tagged ΔF508-CFTR expressing CFBE cells, intrinsic corrector capacity. The format is cell-based. Set-up: % Activation: concentration or dose not given beside the values. In a few lines:
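Read-out: chemiluminescent HRP activity of ECL4-HRP-tagged ΔF508-CFTR at the cell surface, 15 min substrate in dark. Normalized as 100×(sample−DMSO)/(positive control−DMSO).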

Where [3] appears, read: HRP-tagged ΔF508-CFTR CFBE cells, in the presence of 3 μM co-corrector.
Setting [4] is: HRP-tagged ΔF508-CFTR CFBE cells, in the presence of 3 μM co-corrector, read-out: EC50.
The mark [5] stands for this setting: HRP-tagged ΔF508-CFTR expressing CFBE41o- cells, compound alone (intrinsic corrector capacity), 20 hours at 33° C.
The mark [6] stands for this setting: HRP-tagged ΔF508-CFTR expressing CFBE41o- cells, compound alone (intrinsic corrector capacity), 20 hours at 33° C., read-out: EC50.

Usually EC50 stands for the concentration at which the effect is half-maximal.

T1 sequence (P13569 with tags, fused parts or gaps DEL508-508): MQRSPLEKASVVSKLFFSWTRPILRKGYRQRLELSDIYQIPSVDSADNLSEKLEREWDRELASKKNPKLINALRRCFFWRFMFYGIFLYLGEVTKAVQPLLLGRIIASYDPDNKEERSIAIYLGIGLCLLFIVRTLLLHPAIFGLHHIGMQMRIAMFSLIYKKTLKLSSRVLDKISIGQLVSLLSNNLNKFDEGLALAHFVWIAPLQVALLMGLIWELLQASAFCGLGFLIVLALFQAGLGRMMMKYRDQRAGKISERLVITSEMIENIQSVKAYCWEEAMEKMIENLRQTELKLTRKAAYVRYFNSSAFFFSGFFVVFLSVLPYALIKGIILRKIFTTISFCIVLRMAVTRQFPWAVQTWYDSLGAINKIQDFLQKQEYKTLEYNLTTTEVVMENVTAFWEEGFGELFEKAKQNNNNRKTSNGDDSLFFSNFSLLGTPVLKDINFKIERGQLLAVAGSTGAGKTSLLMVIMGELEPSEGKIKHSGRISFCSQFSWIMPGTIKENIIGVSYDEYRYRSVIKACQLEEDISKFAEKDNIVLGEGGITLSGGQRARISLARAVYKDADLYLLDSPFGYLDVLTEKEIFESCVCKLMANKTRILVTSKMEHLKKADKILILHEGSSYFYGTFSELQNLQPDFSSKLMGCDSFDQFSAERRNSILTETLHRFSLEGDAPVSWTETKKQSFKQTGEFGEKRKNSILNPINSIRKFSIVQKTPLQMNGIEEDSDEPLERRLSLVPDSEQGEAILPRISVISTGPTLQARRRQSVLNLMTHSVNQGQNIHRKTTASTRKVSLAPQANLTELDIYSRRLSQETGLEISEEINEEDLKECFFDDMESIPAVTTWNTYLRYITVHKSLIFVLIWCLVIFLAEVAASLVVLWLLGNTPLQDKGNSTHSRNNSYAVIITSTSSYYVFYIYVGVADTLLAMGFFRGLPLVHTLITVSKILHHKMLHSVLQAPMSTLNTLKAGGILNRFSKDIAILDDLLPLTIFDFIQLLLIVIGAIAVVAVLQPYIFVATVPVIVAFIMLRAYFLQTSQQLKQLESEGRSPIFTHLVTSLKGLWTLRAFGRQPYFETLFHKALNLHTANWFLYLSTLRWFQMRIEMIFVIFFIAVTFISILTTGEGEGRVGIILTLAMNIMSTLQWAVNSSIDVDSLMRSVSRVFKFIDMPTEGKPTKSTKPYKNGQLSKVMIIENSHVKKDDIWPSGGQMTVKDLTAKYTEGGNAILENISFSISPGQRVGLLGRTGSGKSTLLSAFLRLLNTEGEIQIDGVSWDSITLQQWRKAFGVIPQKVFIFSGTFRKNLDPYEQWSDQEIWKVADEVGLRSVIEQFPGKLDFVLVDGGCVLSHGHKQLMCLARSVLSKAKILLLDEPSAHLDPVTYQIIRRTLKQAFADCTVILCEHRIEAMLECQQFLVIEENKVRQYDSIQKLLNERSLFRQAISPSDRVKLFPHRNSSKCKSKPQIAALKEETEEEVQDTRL

In the case of `CCCN(C)S(=O)(=O)NC(=O)c1cc(N2CCC(COC)CC2)c2c(C3CCC3)nn(-c3ccccc3)c2n1` [Compound 391, 3-cyclobutyl-4-[4-(methoxymethyl)piperidin-1-yl]-N-[methyl(propyl)sulfamoyl]-1-phenyl-1H-pyrazolo[3,4-b]pyridine-6-carboxamide], the figures for the “% Activation” value on ΔF508-CFTR [1] (setting [3]) and on ΔF508-CFTR [2] (setting [5]) were 441.15% and 247.7%, respectively. The EC50 came to 85.5 nM on ΔF508-CFTR [1] (setting [4]) and 77.1 nM at ΔF508-CFTR [2] (setting [6]).
As to `CCCN(CC)S(=O)(=O)NC(=O)c1cc(N2CCC(COC)CC2)c2c(C3CCC3)nn(-c3ccccc3)c2n1` [Compound 392, 3-cyclobutyl-N-[ethyl(propyl)sulfamoyl]-4-[4-(methoxymethyl)piperidin-1-yl]-1-phenyl-1H-pyrazolo[3,4-b]pyridine-6-carboxamide], the “% Activation” value is reported as 421.4% on ΔF508-CFTR [1] (setting [3]) and 240.05% on ΔF508-CFTR [2] (setting [5]). Also, the EC50 at ΔF508-CFTR [1] (setting [4]) is 139 nM; on ΔF508-CFTR [2] (setting [6]), 150 nM.
On to `CCOC(=O)N1CCC(NS(=O)(=O)NC(=O)c2cc(N3CCC(COC)CC3)c3c(C4CCC4)nn(-c4ccccc4)c3n2)CC1` [Compound 393, ethyl 4-[({3-cyclobutyl-4-[4-(methoxymethyl)piperidin-1-yl]-1-phenyl-1H-pyrazolo[3,4-b]pyridine-6-carbonyl}sulfamoyl)amino]piperidine-1-carboxylate], for which the “% Activation” value was found to be 533.65% at ΔF508-CFTR [1] (setting [3]) and 423.6% at ΔF508-CFTR [2] (setting [5]). For the same compound, the EC50 at ΔF508-CFTR [1] (setting [4]) came out at 20.8 nM; at ΔF508-CFTR [2] (setting [6]), 51.4 nM.
For the compound `COCC1CCN(c2cc(C(=O)NS(=O)(=O)N3CCCN(C(C)=O)CC3)nc3c2c(C2CCC2)nn3-c2ccccc2)CC1` [Compound 394, N-(4-acetyl-1,4-diazepane-1-sulfonyl)-3-cyclobutyl-4-[4-(methoxymethyl)piperidin-1-yl]-1-phenyl-1H-pyrazolo[3,4-b]pyridine-6-carboxamide], the “% Activation” value turned out to be 366.87% on ΔF508-CFTR [1] (setting [3]) and 194.35% at ΔF508-CFTR [2] (setting [5]). Besides, the EC50 on ΔF508-CFTR [1] (setting [4]) is 47.9 nM; on ΔF508-CFTR [2] (setting [6]), 99.5 nM.
As for `COCC1CCN(c2cc(C(=O)NS(=O)(=O)N3CCC(N4CCC[C@@H]4COC)CC3)nc3c2c(C2CCC2)nn3-c2ccccc2)CC1` [Compound 395, 3-cyclobutyl-4-[4-(methoxymethyl)piperidin-1-yl]-N-{4-[(2R)-2-(methoxymethyl)pyrrolidin-1-yl]piperidine-1-sulfonyl}-1-phenyl-1H-pyrazolo[3,4-b]pyridine-6-carboxamide], the entries for the “% Activation” value on ΔF508-CFTR [1] (setting [3]) and at ΔF508-CFTR [2] (setting [5]) were 327.95% and 209.2%, respectively. Besides, the EC50 on ΔF508-CFTR [1] (setting [4]) turned out to be 127 nM; on ΔF508-CFTR [2] (setting [6]), 474 nM.
On to `COCC1CCN(c2cc(C(=O)NS(=O)(=O)N3CCC(C(=O)N4CCN(C)CC4)CC3)nc3c2c(C2CCC2)nn3-c2ccccc2)CC1` [Compound 398, 3-cyclobutyl-4-[4-(methoxymethyl)piperidin-1-yl]-N-[4-(4-methylpiperazine-1-carbonyl)piperidine-1-sulfonyl]-1-phenyl-1H-pyrazolo[3,4-b]pyridine-6-carboxamide], for which the results for the “% Activation” value on ΔF508-CFTR [1] (setting [3]) and at ΔF508-CFTR [2] (setting [5]) were 324.03% and 173.7%, respectively. Besides, the results for the EC50 at ΔF508-CFTR [1] (setting [4]) and on ΔF508-CFTR [2] (setting [6]) were 73.6 nM and 181 nM, respectively.
In the same order, the values of `COCC1CCN(c2cc(C(=O)NS(=O)(=O)C3CC3)nc3c2c(C2CCC2)nn3-c2ccccc2)CC1` [Compound 401, 3-cyclobutyl-N-(cyclopropanesulfonyl)-4-[4-(methoxymethyl)piperidin-1-yl]-1-phenyl-1H-pyrazolo[3,4-b]pyridine-6-carboxamide] are 595.1%, 400.8%, 62 nM and 104 nM.
In the same order, the values of `CCS(=O)(=O)NC(=O)c1cc(N2CCC(COC)CC2)c2c(C3CCC3)nn(-c3ccccc3)c2n1` [Compound 403, 3-cyclobutyl-N-(ethanesulfonyl)-4-[4-(methoxymethyl)piperidin-1-yl]-1-phenyl-1H-pyrazolo[3,4-b]pyridine-6-carboxamide] are 507.35%, 389.2%, 25.6 nM and 30.2 nM.
For the compound `COCCS(=O)(=O)NC(=O)c1cc(N2CCC(N3CCOCC3)CC2)c2c(C3CCC3)nn(C3CCCCC3)c2n1` [Compound 419, 3-cyclobutyl-1-cyclohexyl-N-(2-methoxyethanesulfonyl)-4-[4-(morpholin-4-yl)piperidin-1-yl]-1H-pyrazolo[3,4-b]pyridine-6-carboxamide], the “% Activation” value worked out at 505.65% on ΔF508-CFTR [1] (setting [3]) and 293% on ΔF508-CFTR [2] (setting [5]). The half-maximal effective concentration (EC50) at ΔF508-CFTR [1] (setting [4]) was found to be 277 nM; on ΔF508-CFTR [2] (setting [6]), 448 nM.
With `CN(C)S(=O)(=O)NC(=O)c1cc(N2CCC(CCN3CCOCC3)CC2)c2c(C3CCC3)nn(C3CCCCC3)c2n1` [Compound 425, 3-cyclobutyl-1-cyclohexyl-N-(dimethylsulfamoyl)-4-{4-[2-(morpholin-4-yl)ethyl]piperidin-1-yl}-1H-pyrazolo[3,4-b]pyridine-6-carboxamide], the “% Activation” value is recorded as 462.85% on ΔF508-CFTR [1] (setting [3]) and 280.2% on ΔF508-CFTR [2] (setting [5]). The EC50 is 166 nM on ΔF508-CFTR [1] (setting [4]) and 277 nM on ΔF508-CFTR [2] (setting [6]).
As for `CN(C)S(=O)(=O)NC(=O)c1cc(N2CCC(N3CCCCC3)CC2)c2c(C3CCC3)nn(-c3ccccc3)c2n1` [Compound 426, 4-([1,4′-bipiperidin]-1′-yl)-3-cyclobutyl-N-(dimethylsulfamoyl)-1-phenyl-1H-pyrazolo[3,4-b]pyridine-6-carboxamide], the EC50 is 82 nM on ΔF508-CFTR [1] and 302 nM on ΔF508-CFTR [2]. The “% Activation” value at ΔF508-CFTR [1] (setting [3]) amounted to 385.3%; at ΔF508-CFTR [2] (setting [5]) it was 143.7%.
With `COCC1CCN(c2cc(C(=O)NS(C)(=O)=O)nc3c2c(C2CCC2)nn3-c2ccnc(C)c2)CC1` [Compound 430, 3-cyclobutyl-N-(methanesulfonyl)-4-[4-(methoxymethyl)piperidin-1-yl]-1-(2-methylpyridin-4-yl)-1H-pyrazolo[3,4-b]pyridine-6-carboxamide], the “% Activation” value at ΔF508-CFTR [1] (setting [3]) was 383.7%; at ΔF508-CFTR [2] (setting [5]) it was 170.05%. Besides, the EC50 on ΔF508-CFTR [1] (setting [4]) stood at 89.9 nM; at ΔF508-CFTR [2] (setting [6]), 231 nM.
For the compound `CCCN(C)S(=O)(=O)NC(=O)c1cc(N2CCC(N3CCOCC3)CC2)c2c(C3CCC3)nn(-c3ccccc3)c2n1` [Compound 432, 3-cyclobutyl-N-[methyl(propyl)sulfamoyl]-4-[4-(morpholin-4-yl)piperidin-1-yl]-1-phenyl-1H-pyrazolo[3,4-b]pyridine-6-carboxamide], the “% Activation” value at ΔF508-CFTR [1] (setting [3]) is recorded as 514.83%; on ΔF508-CFTR [2] (setting [5]), 243.6%. Moreover, the EC50 at ΔF508-CFTR [1] (setting [4]) was found to be 65.9 nM; at ΔF508-CFTR [2] (setting [6]) it was 119 nM.
As for `CCOC(=O)N1CCC(NS(=O)(=O)NC(=O)c2cc(N3CCC(N4CCOCC4)CC3)c3c(C4CCC4)nn(-c4ccccc4)c3n2)CC1` [Compound 433, ethyl 4-[({3-cyclobutyl-4-[4-(morpholin-4-yl)piperidin-1-yl]-1-phenyl-1H-pyrazolo[3,4-b]pyridine-6-carbonyl}sulfamoyl)amino]piperidine-1-carboxylate], the “% Activation” value on ΔF508-CFTR [1] (setting [3]) is 563.8%; at ΔF508-CFTR [2] (setting [5]) it was 361.5%. The results for the half-maximal effective concentration (EC50) at ΔF508-CFTR [1] (setting [4]) and at ΔF508-CFTR [2] (setting [6]) were 49 nM and 96.5 nM, respectively.
Regarding `O=C(NS(=O)(=O)N1CCC(F)CC1)c1cc(N2CCC(N3CCOCC3)CC2)c2c(C3CCC3)nn(-c3ccccc3)c2n1` [Compound 434, 3-cyclobutyl-N-(4-fluoropiperidine-1-sulfonyl)-4-[4-(morpholin-4-yl)piperidin-1-yl]-1-phenyl-1H-pyrazolo[3,4-b]pyridine-6-carboxamide], the “% Activation” value at ΔF508-CFTR [1] (setting [3]) is 470.37%; at ΔF508-CFTR [2] (setting [5]), 245.2%. The EC50 at ΔF508-CFTR [1] (setting [4]) is 59.5 nM; on ΔF508-CFTR [2] (setting [6]), 57.7 nM.
For `CC1(S(=O)(=O)NC(=O)c2cc(N3CCC(N4CCOCC4)CC3)c3c(C4CCC4)nn(-c4ccccc4)c3n2)CC1` [Compound 435, 3-cyclobutyl-N-(1-methylcyclopropane-1-sulfonyl)-4-[4-(morpholin-4-yl)piperidin-1-yl]-1-phenyl-1H-pyrazolo[3,4-b]pyridine-6-carboxamide], the results for the “% Activation” value at ΔF508-CFTR [1] (setting [3]) and on ΔF508-CFTR [2] (setting [5]) were 474.8% and 269.9%, respectively. Also, the EC50 on ΔF508-CFTR [1] (setting [4]) was 82.8 nM; on ΔF508-CFTR [2] (setting [6]), 136 nM.
`O=C(NS(=O)(=O)C1CC1)c1cc(N2CCC(N3CCOCC3)CC2)c2c(C3CCC3)nn(-c3ccccc3)c2n1` [Compound 436, 3-cyclobutyl-N-(cyclopropanesulfonyl)-4-[4-(morpholin-4-yl)piperidin-1-yl]-1-phenyl-1H-pyrazolo[3,4-b]pyridine-6-carboxamide]: the “% Activation” value on ΔF508-CFTR [1] (setting [3]) is on record as 568.6%; on ΔF508-CFTR [2] (setting [5]) it was 393.3%. Moreover, the concentration for a half-maximal effect (EC50) was determined as 71.1 nM on ΔF508-CFTR [1] (setting [4]) and 344 nM at ΔF508-CFTR [2] (setting [6]).
As for `CCS(=O)(=O)NC(=O)c1cc(N2CCC(N3CCOCC3)CC2)c2c(C3CCC3)nn(-c3ccccc3)c2n1` [Compound 437, 3-cyclobutyl-N-(ethanesulfonyl)-4-[4-(morpholin-4-yl)piperidin-1-yl]-1-phenyl-1H-pyrazolo[3,4-b]pyridine-6-carboxamide], the “% Activation” value is 563.64% at ΔF508-CFTR [1] (setting [3]) and 353.8% at ΔF508-CFTR [2] (setting [5]).
Turning to `COCCS(=O)(=O)NC(=O)c1cc(N2CCC(N3CCOCC3)CC2)c2c(C3CCC3)nn(-c3ccccc3)c2n1` [Compound 438, 3-cyclobutyl-N-(2-methoxyethanesulfonyl)-4-[4-(morpholin-4-yl)piperidin-1-yl]-1-phenyl-1H-pyrazolo[3,4-b]pyridine-6-carboxamide], the “% Activation” value on ΔF508-CFTR [1] (setting [3]) turned out to be 541.5%; on ΔF508-CFTR [2] (setting [5]) it was 337%. Besides, the EC50 worked out at 380 nM at ΔF508-CFTR [1] (setting [4]) and 392 nM at ΔF508-CFTR [2] (setting [6]).
